Results taken from patent publication US8883779B2, “Oxazine derivatives and a pharmaceutical composition for inhibiting BACE1 containing them” (Shinogi & Co., Ltd., priority 2011, dated 2014).

Key:
[1] = target: T1, CYP3A4 enzyme (enzyme expressed in Escherichia coli) (Homo sapiens, UniProt P08684); assay: CYP3A4 fluorescent MBI test; type: in vitro ADME; details: 7-BFC substrate, pre-reaction time 0 or 30 minutes
T1 construct: host or cells: Escherichia coli
Description: The CYP3A4 fluorescent MBI test is a test of investigating enhancement of CYP3A4 inhibition of a compound by a metabolism reaction. 7-benzyloxytrifluoromethylcoumarin (7-BFC) is debenzylated by the CYP3A4 enzyme (enzyme expressed in Escherichia coli) and 7-hydroxytrifluoromethylcoumarin (7-HFC) is produced as a fluorescing metabolite. The test is performed using 7-HFC production reaction as an index.
The reaction conditions are as follows: substrate, 5.6 μmol/L 7-BFC; pre-reaction time, 0 or 30 minutes; substrate reaction time, 15 minutes; reaction temperature, 25° C. […]
An enzyme in a K-Pi buffer (pH 7.4) and a compound of the present invention solution as a pre-reaction solution were added to a 96-well plate at the composition of the pre-reaction. […] Fluorescent values of 7-HFC as a metabolite were measured in each index reaction plate with a fluorescent plate reader. […]
The sample adding DMSO to a reaction system instead of compound of the present invention solution was adopted as a control (100%) because DMSO is used as a solvent to dissolve a compound of the present invention. Remaining activity (%) was calculated at each concentration of the compound of the present invention added as the solution, and IC50 was calculated by reverse-presumption by a logistic model using a concentration and an inhibition rate. […]

Recombinant human BACE1 = target: T2, Recombinant human BACE1 (Homo sapiens, UniProt P56817); assay: Assay of BACE1 inhibiting activity; type: biochemical; details: Recombinant human BACE1 7.4 nmol/L, substrate peptide 18 nmol/L, pH 5.0, 30° C., 3.5 hours; read-out: 50% inhibitory concentration against the enzymatic activity (IC50)
T2 construct: purchased R&D Systems
Description: 48.5 μL of substrate peptide solution (Biotin-XSEVNLDAEFRHDSGC-Eu: X=ε-amino-n-capronic acid, Eu=Europium cryptate) was added to each well of 96-hole half-area plate (a black plate: Costar), and after addition of 0.5 μl of the compound of the present invention (DMSO solution) and 1 μl of Recombinant human BACE1(R&D Systems), the reaction mixture was incubated at 30° C. for 3.5 hours. The substrate peptide was synthesized by reacting Cryptate TBPCOOH mono SMP (CIS bio international) with Biotin-XSEVNLDAEFRHDSGC (Peptide Institute, Inc.). The final concentrations of the substrate peptide and Recombinant human BACE1 were adjusted to 18 nmol/L and 7.4 nmol/L, respectively, and the reaction was performed in sodium acetate buffer (50 mmol/L sodium acetate, pH 5.0, 0.008% Triton X-100).
After the incubation for reaction, 50 μl of 8.0 μg/ml Streptavidin-XL665 (CIS bio international) dissolved in phosphate buffer (150 mmol/L K2 HPO4—KH2 PO4, pH 7.0, 0.008% Triton X-100, 0.8 mol/L KF) was added to each well and left stand at 30° C. for 45 minutes. After then, fluorescence intensity was measured (excitation wavelength: 320 nm, measuring wavelength: 620 nm and 665 nm) using Wallac 1420 multilabel counter (Perkin Elmer life sciences).

CYP1A2 = target: T3, CYP1A2 (Homo sapiens, UniProt P05177); assay: CYP inhibition test, 7-ethoxyresorufin O-deethylation; type: in vitro ADME; details: pooled human liver microsomes, 0.5 μmol/L ethoxyresorufin
T3 construct: The commercially available pooled human liver microsomes were used; from tissue; host or cells: pooled human liver microsomes
T3 sequence (P05177 1-516): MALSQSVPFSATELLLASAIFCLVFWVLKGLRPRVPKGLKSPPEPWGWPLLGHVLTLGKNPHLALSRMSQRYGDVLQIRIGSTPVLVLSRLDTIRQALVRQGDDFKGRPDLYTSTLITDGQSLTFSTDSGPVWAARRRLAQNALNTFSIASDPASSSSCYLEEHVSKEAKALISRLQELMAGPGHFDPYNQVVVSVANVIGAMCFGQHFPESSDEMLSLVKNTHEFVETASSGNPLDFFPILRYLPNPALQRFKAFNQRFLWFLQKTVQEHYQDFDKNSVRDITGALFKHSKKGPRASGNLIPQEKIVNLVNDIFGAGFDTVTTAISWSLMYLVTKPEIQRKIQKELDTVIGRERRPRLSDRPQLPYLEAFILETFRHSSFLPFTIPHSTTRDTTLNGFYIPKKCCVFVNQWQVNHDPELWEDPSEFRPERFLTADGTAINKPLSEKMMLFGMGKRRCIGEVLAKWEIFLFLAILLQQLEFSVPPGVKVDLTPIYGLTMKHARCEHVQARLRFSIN
Description: (§1) The test is to assess the inhibitory effect of a compound of the present invention towards typical substrate metabolism reactions on CYP enzymes in human liver microsomes. The commercially available pooled human liver microsomes were used.
(§2) The marker reactions on human main five CYP enzymes (CYP1A2, 2C9, 2C19, 2D6, and 3A4) were used as follows; 7-ethoxyresorufin O-deethylation (CYP1A2), tolbutamide methyl-hydroxylation (CYP2C9), mephenyloin 4′-hydroxylation (CYP2C19), dextromethorphan O-demethylation (CYP2D6), and terfenadine hydroxylation (CYP3A4 […]
(§3) Five kinds of substrates, human liver microsomes, or a compound of the present invention in 50 mmol/L Hepes buffer was added to a 96-well plate at the composition as described above as a reaction solution. […] After the centrifugation at 3000 rpm for 15 minutes, resorufin (CYP1A2 metabolite) in the supernatant was quantified by a fluorescent plate reader, and hydroxytolbutamide (CYP2C9 metabolite), 4′-hydroxymephenyloin (CYP2C19 metabolite), dextrorphan (CYP2D6 metabolite), and terfenadine alcohol metabolite (CYP3A4 metabolite) in the supernatant were quantified by LC/MS/MS. […]

CYP2C9 = target: T4, CYP2C9 (Homo sapiens, UniProt P11712); assay: CYP inhibition test, tolbutamide methyl-hydroxylation; type: in vitro ADME; details: pooled human liver microsomes, 100 μmol/L tolbutamide
T4 construct: The commercially available pooled human liver microsomes were used; from tissue; host or cells: pooled human liver microsomes
Description: as §1, §2, §3

CYP2C19 = target: T5, CYP2C19 (Homo sapiens, UniProt P33261); assay: CYP inhibition test, mephenyloin 4'-hydroxylation; type: in vitro ADME; details: pooled human liver microsomes, 50 μmol/L S-mephenyloin
T5 construct: The commercially available pooled human liver microsomes were used; from tissue; host or cells: pooled human liver microsomes
Description: as §1, §2, §3

CYP2D6 = target: T6, CYP2D6 (Homo sapiens, UniProt P10635); assay: CYP inhibition test, dextromethorphan O-demethylation; type: in vitro ADME; details: pooled human liver microsomes, 5 μmol/L dextromethorphan
T6 construct: The commercially available pooled human liver microsomes were used; from tissue; host or cells: pooled human liver microsomes
Description: as §1, §2, §3

CYP3A4 = target: T7, CYP3A4 (Homo sapiens, UniProt P08684); assay: CYP inhibition test, terfenadine hydroxylation; type: in vitro ADME; details: pooled human liver microsomes, 1 μmol/L terfenadine
T7 construct: The commercially available pooled human liver microsomes were used; from tissue; host or cells: pooled human liver microsomes
Description: as §1, §2, §3

[2] = Metabolism stability test; type: in vitro ADME; details: human liver microsomes 0.5 mg protein/mL, 1 mmol/L NADPH, 37° C., 30 minutes
Description: Using a commercially available pooled human liver microsomes, a compound of the present invention is reacted for a constant time, a remaining rate is calculated by comparing a reacted sample and an unreacted sample, thereby, a degree of metabolism in liver was assessed.
A reaction was performed (oxidative reaction) at 37° C. for 0 minute or 30 minutes in the presence of 1 mmol/L NADPH in 0.2 mL of a buffer (50 mmol/L Tris-HCl pH 7.4, 150 mmol/L potassium chloride, 10 mmol/L magnesium chloride) containing 0.5 mg protein/mL of human liver microsomes. After the reaction, 50 μL of the reaction solution was added to 100 μL of a methanol/acetonitrile=1/1 (v/v), mixed and centrifuged at 3000 rpm for 15 minutes. The compound of the present invention in the supernatant was quantified by LC/MS/MS, and a remaining amount of the compound of the present invention after the reaction was calculated, letting a compound amount at 0 minute reaction time to be 100%.

[3] = Solubility test (turbidity, JP-I / JP-II medium); type: physicochemical; details: pH 6.8, aqueous buffer, kinetic from dmso stock, 2% DMSO solution, turbidity after 4 hours, read-out: solubility assessed by 3 stages

T2 sequence (P56817 46-501): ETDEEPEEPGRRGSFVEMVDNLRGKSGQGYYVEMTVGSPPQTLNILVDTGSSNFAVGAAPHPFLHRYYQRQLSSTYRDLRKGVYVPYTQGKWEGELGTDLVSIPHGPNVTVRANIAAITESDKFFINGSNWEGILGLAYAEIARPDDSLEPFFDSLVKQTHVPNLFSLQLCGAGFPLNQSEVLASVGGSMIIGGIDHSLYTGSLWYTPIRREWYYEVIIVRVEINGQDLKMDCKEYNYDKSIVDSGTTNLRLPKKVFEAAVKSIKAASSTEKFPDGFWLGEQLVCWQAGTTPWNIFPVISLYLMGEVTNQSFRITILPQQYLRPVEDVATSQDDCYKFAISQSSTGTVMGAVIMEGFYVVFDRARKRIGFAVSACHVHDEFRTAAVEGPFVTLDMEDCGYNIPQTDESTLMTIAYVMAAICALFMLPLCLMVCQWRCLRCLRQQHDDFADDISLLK
T5 sequence (P33261 whole entry): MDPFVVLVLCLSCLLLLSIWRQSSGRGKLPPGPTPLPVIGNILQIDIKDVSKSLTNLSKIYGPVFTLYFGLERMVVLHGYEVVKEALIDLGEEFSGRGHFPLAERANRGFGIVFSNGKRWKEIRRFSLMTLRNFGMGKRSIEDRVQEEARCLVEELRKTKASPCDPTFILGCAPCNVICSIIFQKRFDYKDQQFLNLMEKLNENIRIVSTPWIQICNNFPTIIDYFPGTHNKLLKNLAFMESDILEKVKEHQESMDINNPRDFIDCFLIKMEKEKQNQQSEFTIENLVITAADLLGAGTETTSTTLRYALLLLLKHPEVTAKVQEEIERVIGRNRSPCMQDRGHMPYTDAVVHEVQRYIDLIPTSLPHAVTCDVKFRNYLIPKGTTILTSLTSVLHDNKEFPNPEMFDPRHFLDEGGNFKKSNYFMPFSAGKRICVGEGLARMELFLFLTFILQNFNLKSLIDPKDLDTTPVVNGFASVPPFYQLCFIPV
T6 sequence (P10635 whole entry): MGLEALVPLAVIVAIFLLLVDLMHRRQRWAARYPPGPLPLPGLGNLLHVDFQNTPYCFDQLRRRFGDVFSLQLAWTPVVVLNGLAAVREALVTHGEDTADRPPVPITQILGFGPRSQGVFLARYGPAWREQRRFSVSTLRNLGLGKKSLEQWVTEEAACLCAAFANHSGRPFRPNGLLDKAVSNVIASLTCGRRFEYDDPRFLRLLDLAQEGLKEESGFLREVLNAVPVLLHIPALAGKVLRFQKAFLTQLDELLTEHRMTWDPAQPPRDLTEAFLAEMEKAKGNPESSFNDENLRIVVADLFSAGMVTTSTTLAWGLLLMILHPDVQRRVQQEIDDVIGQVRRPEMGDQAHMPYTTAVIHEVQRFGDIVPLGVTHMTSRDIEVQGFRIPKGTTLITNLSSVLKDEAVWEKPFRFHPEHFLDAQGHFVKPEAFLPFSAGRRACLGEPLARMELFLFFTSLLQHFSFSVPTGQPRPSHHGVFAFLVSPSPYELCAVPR
T7 sequence (P08684 whole entry): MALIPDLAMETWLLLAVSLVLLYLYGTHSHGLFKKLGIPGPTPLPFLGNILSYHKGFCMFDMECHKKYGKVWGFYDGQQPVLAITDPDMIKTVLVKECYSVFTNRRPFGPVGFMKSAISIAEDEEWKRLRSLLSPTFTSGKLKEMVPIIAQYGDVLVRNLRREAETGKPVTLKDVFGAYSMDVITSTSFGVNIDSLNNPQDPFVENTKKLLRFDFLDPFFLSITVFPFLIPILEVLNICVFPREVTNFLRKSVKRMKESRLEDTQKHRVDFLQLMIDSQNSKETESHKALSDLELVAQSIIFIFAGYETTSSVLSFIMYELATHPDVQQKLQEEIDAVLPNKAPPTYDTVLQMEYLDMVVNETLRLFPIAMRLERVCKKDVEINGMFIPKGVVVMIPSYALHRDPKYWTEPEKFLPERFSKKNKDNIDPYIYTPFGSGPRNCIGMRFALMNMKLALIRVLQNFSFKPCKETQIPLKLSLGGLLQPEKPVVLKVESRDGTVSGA
T1 sequence (P08684 whole entry): as above
T4 sequence (P11712 whole entry): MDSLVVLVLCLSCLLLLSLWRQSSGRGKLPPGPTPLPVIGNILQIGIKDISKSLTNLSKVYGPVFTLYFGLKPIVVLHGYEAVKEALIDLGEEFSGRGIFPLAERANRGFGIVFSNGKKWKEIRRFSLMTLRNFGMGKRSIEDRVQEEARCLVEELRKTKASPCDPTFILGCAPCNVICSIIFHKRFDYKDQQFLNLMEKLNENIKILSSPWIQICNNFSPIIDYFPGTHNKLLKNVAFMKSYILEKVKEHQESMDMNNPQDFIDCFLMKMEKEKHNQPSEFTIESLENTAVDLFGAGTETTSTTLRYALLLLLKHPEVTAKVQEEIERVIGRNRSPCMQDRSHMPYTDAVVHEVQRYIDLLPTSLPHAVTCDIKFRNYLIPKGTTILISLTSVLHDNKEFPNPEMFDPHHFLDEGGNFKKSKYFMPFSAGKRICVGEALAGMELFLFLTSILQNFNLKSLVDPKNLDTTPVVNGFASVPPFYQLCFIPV

Question: For CC1=C[C@@](C)(c2cc(NC(=O)c3cnc(OCF)cn3)ccc2F)N=C(N)O1 [Compound I-1], which “CYP3A4 MBI: difference of IC50 without and with preincubation” value [1] is on record?
Answer: (−) (the difference is 3 μM or less)

Question: For C[C@@]1(c2cc(NC(=O)c3ccc(C#N)cn3)ccc2F)C=C(CO)OC(N)=N1 [Compound I-4], which IC50 (Recombinant human BACE1) is on record?
Answer: 10.6 nM

Question: With CC1=C[C@@](C)(c2cc(NC(=O)c3ccc(C#N)cn3)ccc2Cl)N=C(N)O1 [Compound I-11] as the compound, how does the IC50 (Recombinant human BACE1) read?
Answer: 64 nM

Question: Which results are given for C[C@@]1(c2cc(NC(=O)c3ncc(C#N)cc3F)ccc2F)C=COC(N)=N1 [Compound I-9]?
Answer: IC50 (CYP1A2): > 20000 nM; IC50 (CYP2C9): > 20000 nM; IC50 (CYP2C19): > 20000 nM; IC50 (CYP2D6): > 20000 nM; IC50 (CYP3A4): > 20000 nM

Question: For C[C@@]1(c2cc(NC(=O)c3cnc(OC(F)F)cn3)ccc2F)C=COC(N)=N1 [Compound I-8], which IC50 (Recombinant human BACE1) is on record?
Answer: 10.3 nM

Question: And the “remaining amount of the compound after the reaction” value [2]?
Answer: 99%

Question: With C[C@@]1(c2cc(NC(=O)c3ccc(C#N)cn3)ccc2F)C=C(C(F)F)OC(N)=N1 [Compound I-2] as the compound, how does the IC50 (Recombinant human BACE1) read?
Answer: 5.3 nM

Question: Which solubility at 4 h [3] does the source give for CC1=C[C@@](C)(c2cc(NC(=O)c3ccc(C(F)F)cn3)ccc2F)N=C(N)O1 [Compound I-5] here?
Answer: > 40 µM
